Marks after values point to notes of the source that are not given here.
What was measured:
[1] = biological target: T1, hMC5R (Homo sapiens, UniProt P33032); assay: cAMP functional assay (agonist); assay type: cell-based
T1 construct: expressed in transfected cells; host or cells: CHO-, L- or other eukaryotic cells
Description: (§1) Cells (for example, CHO— or L-cells or other eukaryotic cells) expressing a human melanocortin receptor (see e.g. Yang-YK; Ollmann-MM; Wilson-BD; Dickinson-C; Yamada-T; Barsh-GS; Gantz-I; Mol-Endocrinol. 1997 March; 11(3): 274-80) were dissociated from tissue culture flasks by rinsing with Ca and Mg free phosphate buffered saline (14190-136, Life Technologies, Gaithersburg, Md.) and detached following 5 min incubation at 37° C. with enzyme free dissociation buffer (S-014-B, Specialty Media, Lavellette, N.J.). Cells were collected by centrifugation and resuspended in Earle's Balanced Salt Solution (14015-069, Life Technologies, Gaithersburg, Md.) with additions of 10 mM HEPES pH 7.5, 5 mM MgCl2, 1 mM glutamine and 1 mg/ml bovine serum albumin. Cells were counted and diluted to 1 to 5×10^6/mL. The phosphodiesterase inhibitor 3-isobutyl-1-methylxanthine was added to cells to 0.6 mM.
(§2) Agonist Assay: Test compounds were diluted in dimethylsulfoxide (DMSO) (10^−5 to 10^−10 M) and 0.1 volume of compound solution was added to 0.9 volumes of cell suspension; the final DMSO concentration was […]. After room temperature incubation for 45 min, cells were lysed by incubation at 100° C. for 5 min to release accumulated cAMP.
(§3) cAMP was measured in an aliquot of the cell lysate with the Amersham (Arlington Heights, Ill.)

[2] = biological target: T2, hMC3R (Homo sapiens, UniProt P41968); assay: cAMP functional assay (agonist); assay type: cell-based
T2 construct: expressed in transfected cells; host or cells: CHO-, L- or other eukaryotic cells
T2 sequence (P41968 whole entry): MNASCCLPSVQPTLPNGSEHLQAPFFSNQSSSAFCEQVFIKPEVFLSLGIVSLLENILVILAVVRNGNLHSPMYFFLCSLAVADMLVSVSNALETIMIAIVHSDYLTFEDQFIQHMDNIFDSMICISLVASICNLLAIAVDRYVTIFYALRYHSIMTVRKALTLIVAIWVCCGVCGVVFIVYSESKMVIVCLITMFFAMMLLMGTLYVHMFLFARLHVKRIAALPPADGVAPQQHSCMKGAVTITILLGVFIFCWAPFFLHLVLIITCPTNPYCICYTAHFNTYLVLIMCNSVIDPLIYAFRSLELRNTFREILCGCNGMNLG
Description: as §1, §2, §3

[3] = biological target: T1, hMC5R; assay: Melanocortin receptor membrane binding assay (125I-NDP-alpha-MSH)
Description: (§4) The membrane binding assay was used to identify competitive inhibitors of ^125I-NDP-alpha-MSH binding to cloned human MCRs expressed in mouse L- or Chinese hamster ovary (CHO)-cells.
(§5) Cell lines expressing melanocortin receptors were grown in T-180 flasks containing selective medium of the composition: 1 L Dulbecco's modified Eagles Medium (DMEM) with 4.5 g […], 25 mM Hepes, without sodium pyruvate, (Gibco/BR1); 100 ml 10% heat-inactivated fetal bovine serum (Sigma); 10 mL 10,000 unit/mL penicillin & 10,000 μg/mL streptomycin (Gibco/BR1); 10 ml 200 mM L-glutamine (Gibco/BR1); 1 mg/mL geneticin (G418) (Gibco/BR1). The cells were grown at 37° C. with CO2 and humidity control until the desired cell density and cell number was obtained.
(§6) The medium was poured off and 10 mls/T-180 flask of enzyme-free dissociation media (Specialty Media Inc.) was added. The cells were incubated at 37° C. for 10 min or until cells sloughed off when flask was banged against hand.
(§7) The cells were harvested into 200 mL centrifuge tubes and spun at 1000 rpm, 4° C., for 10 min. The supernatant was discarded and the cells were resuspended in 5 mls/monolayer membrane preparation buffer having the composition: 10 mM Tris pH 7.2-7.4; 4 μg/mL Leupeptin (Sigma); 10 μM Phosphoramidon (Boehringer Mannheim); 40 μg/mL Bacitracin (Sigma); 5 μg/mL Aprotinin (Sigma); 10 mM Pefabloc (Boehringer Mannheim). The cells were homogenized with motor-driven dounce (Talboy setting 40), using 10 strokes and the homogenate centrifuged at 6,000 rpm, 4° C., for 15 min.
(§8) The pellets were resuspended in 0.2 mls/monolayer membrane prep buffer and aliquots were placed in tubes ([…]) and quick frozen in liquid nitrogen and then stored at −80° C.
(§9) Test compounds or unlabelled NDP-α-MSH was added to 100 μL of membrane binding buffer to a final concentration of 1 μM. The membrane binding buffer had the composition: 50 mM Tris pH 7.2; 2 mM CaCl2; 1 mM MgCl2; 5 mM KCl; 0.2% BSA; 4 μg/mL Leupeptin (SIGMA); 10 μM Phosphoramidon (Boehringer Mannheim); 40 μg/mL Bacitracin (SIGMA); 5 μg/mL Aprotinin (SIGMA); and 10 mM Pefabloc (Boehringer Mannheim). One hundred μL of membrane binding buffer containing 10-40 μg membrane protein was added, followed by […]. The resulting mixture was vortexed briefly and incubated for 90-120 min at room temp while shaking.
(§10) The mixture was filtered with Packard Microplate 196 filter apparatus using Packard Unifilter 96-well GF/C filter with 0.1% polyethyleneimine (Sigma). The filter was washed (5 times with a total of 10 mL per well) with room temperature of filter wash having the composition: 50 mM Tris-HCl pH 7.2 and 20 mM NaCl. […] The top was sealed and the radioactivity quantitated in a Packard Topcount Microplate Scintillation counter.

[4] = biological target: T3, hMC4R (Homo sapiens, UniProt P32245); assay: as above
T3 construct: expressed in transfected cells; host or cells: CHO-, L- or other eukaryotic cells
T3 sequence (P32245 whole entry): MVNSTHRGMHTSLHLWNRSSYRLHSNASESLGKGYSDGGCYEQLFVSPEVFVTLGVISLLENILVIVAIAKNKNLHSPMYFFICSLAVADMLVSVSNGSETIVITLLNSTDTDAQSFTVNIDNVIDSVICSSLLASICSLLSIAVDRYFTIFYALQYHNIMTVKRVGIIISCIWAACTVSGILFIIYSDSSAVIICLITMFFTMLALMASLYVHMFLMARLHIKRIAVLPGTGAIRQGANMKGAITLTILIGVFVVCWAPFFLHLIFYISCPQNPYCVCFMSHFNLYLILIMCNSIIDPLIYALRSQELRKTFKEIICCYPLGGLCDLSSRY
Description: as §4, §5, §6, §7, §8, §9, §10

[5] = biological target: T4, hMC1bR (Homo sapiens, UniProt Q01726); assay: as above
T4 sequence (Q01726 whole entry): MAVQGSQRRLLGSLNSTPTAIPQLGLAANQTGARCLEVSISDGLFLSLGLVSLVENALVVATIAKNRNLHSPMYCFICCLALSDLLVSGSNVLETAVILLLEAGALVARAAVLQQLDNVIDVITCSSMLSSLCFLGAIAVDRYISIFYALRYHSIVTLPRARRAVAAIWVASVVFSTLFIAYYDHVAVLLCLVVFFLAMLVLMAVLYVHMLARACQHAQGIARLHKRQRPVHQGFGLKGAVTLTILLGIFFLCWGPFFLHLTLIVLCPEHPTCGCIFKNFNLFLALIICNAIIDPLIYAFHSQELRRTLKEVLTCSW
Description: as §4, §5, §6, §7, §8, §9, §10

[6] = biological target: T2, hMC3R; assay: as above
Description: The cells were grown at 37° C. with CO2 and humidity control until the desired cell density and cell number was obtained.

[7] = biological target: T5, hMC2R (Homo sapiens, UniProt Q01718); assay: cAMP functional assay (agonist); assay type: cell-based
T5 construct: expressed in transfected cells; host or cells: CHO-, L- or other eukaryotic cells
T5 sequence (Q01718 whole entry): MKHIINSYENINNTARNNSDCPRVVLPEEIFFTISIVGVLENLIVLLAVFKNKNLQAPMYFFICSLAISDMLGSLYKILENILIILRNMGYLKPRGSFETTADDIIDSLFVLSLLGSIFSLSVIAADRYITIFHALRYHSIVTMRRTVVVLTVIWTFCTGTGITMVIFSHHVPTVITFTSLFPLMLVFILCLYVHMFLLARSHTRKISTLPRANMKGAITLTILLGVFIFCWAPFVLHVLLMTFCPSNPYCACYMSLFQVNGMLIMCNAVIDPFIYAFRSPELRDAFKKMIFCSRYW
T5 sequence (Q8TCY5 whole entry partner): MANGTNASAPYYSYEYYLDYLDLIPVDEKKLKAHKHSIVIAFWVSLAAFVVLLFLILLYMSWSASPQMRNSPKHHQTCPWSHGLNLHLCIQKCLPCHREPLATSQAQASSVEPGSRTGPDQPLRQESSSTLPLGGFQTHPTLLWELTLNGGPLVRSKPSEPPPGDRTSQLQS
Description: as §1, §2, §3
(§11) cAMP detection assay (RPA556). The amount of cAMP production which resulted from an unknown compound was compared to that amount of cAMP produced in response to alpha-MSH which was defined as a 100% agonist. The EC50 is defined as the compound concentration which results in half maximal stimulation, when compared to its own maximal level of stimulation.

[8] = biological target: T3, hMC4R; assay: cAMP functional assay (agonist); assay type: cell-based
Description: as §1, §2, §3, §11

[9] = biological target: T4, hMC1bR; assay: cAMP functional assay (agonist); assay type: cell-based
Description: as §1, §2, §3, §11

[10] = tested on: ferrets; assay: MC4R associated emesis in ferrets, Compound A and Compound B (Table 1); assay type: in vivo, ferret; conditions: Compound A 60 mg/kg orally; for % Emesis: ferrets; for # of Ferrets: ferrets with emesis/dosed
Description: (§12) Food intake (FI) was monitored at 1, 2, 4, and 24, hours after dosing. Body weight (BWT) was measured at the time of dosing and at 24 hours. Any incidence of emesis or abnormal behavior by subjects was recorded. Two studies were combined to generate the data.

[11] = tested on: ferrets; assay: MC4R associated emesis in ferrets, Compound A and Compound F (Table 2); assay type: in vivo, ferret; conditions: Compound A (10 mg/kg); for % Emesis: ferrets; for # of Ferrets: ferrets with emesis/dosed
Description: FIG. 3. […] All food intake data were analyzed by two-tailed T-TEST.
as §12

T1 sequence (P33032 whole entry): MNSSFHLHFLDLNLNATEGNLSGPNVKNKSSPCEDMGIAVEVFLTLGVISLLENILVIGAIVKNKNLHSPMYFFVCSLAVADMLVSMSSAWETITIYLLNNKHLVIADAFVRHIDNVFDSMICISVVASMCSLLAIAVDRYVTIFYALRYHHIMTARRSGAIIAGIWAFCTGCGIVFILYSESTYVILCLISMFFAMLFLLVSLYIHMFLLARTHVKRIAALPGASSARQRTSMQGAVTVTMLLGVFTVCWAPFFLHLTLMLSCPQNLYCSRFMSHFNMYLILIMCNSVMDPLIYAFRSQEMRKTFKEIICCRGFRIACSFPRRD

CC[C@H](NC(C)=O)c1cc(Cl)ccc1C1CCN(C(=O)[C@@H]2CN(C(C)(C)C)C[C@H]2c2ccc(F)cc2F)CC1 [Compound A]
EC50 [1]: 1400 nM | EC50 [2]: 920 nM | IC50 [3]: 1600 nM | IC50 [4]: 44 nM | IC50 [5]: 5600 nM | Selectivity Binding IC50 1R/4R ([5]; IC50 hMC1bR / IC50 hMC4R): 127.27 | IC50 [6]: 7200 nM | EC50 [7]: > 10000 nM | EC50 [8]: 14 nM | EC50 [9]: 1700 nM | Selectivity cAMP EC50 1R/4R ([9]; EC50 hMC1bR / EC50 hMC4R): 121.43 | % Emesis ([10]; 1 hour): 31% | % Emesis ([10]; 2 hours): 8% | % Emesis ([10]; 4 hours): 69% | % Emesis ([10]; Total, 60 mg/kg): 77% | # of Ferrets ([10]; 1 hour): 4/13 | # of Ferrets ([10]; 2 hours): 1/13 | # of Ferrets ([10]; 4 hours): 9/13****** | # of Ferrets ([10]; Total): 10/13**** | % Emesis ([11]; 1 hour): 40% | % Emesis ([11]; 2 hours): 40% | % Emesis ([11]; 4 hours): 60% | % Emesis ([11]; total): 100% | # of Ferrets ([11]; 1 hour): 2/5** | # of Ferrets ([11]; 2 hours): 2/5 | # of Ferrets ([11]; 4 hours): 5/5*** | # of Ferrets ([11]; total): 5/5*****

Source: patent US20080200376A1, “Compositions and Methods For the Treatment Of Obesity and Sexual Dysfunction” (priority 2004, published 2008)
